Tests used:
[1] = test system: H4, HCT116 and MDA-MB-231 cells; test: Cell viability assay (CellTiter-Glo, cellular impedance); type: cell-based, human
Experimental: Cells were seeded into a 384-well plate overnight and treated with various drugs for 24 h. CellTiter-Glo (Promega, Madison, Wis., USA) was subsequently added to the treated cells, and the luminescence was read using a Fluoroskan Ascent FL reader (Thermo Fisher Scientific). Alternatively, the cell viability was monitored with an impedance-based instrument system (iCELLigence, ACEA Biosciences) for live cells. Briefly, H4 cells, HCT116 cells and MDA-MB-23 cells (4×10^4 cells/well) were seeded into electronic plates (E-Plates L8, ACEA Biosciences) with 400 μl of DMEM that contained 10% FBS and incubated for 30 h. […] The cellular impedance was periodically measured every 15 minutes until 80 h.
The cell viability was accessed with CellTiter-Glo.

HCT116 cells [2] = test: Caspase-3 activation (Caspase-Glo 3/7, immunoblotting of caspase-3 and PARP); type: cell-based, human; details: for caspase-3/7 activity and cleavage of caspase-3 and PARP: cells exposed to Dox (1 μM) alone or co-treated with tioconazole (40 μM)
Text: The cell lysates were used for immunoblotting with antibodies against the primary antibodies against ATG4B (A2981), LC3 (L7543), and ACTB (β-actin, A5441) (all purchased from Sigma-Aldrich). […] The membrane was scanned and analyzed for the protein expression level with the ChemiDoc XRS Imaging System (Bio-Rad).

ATG4B [3] = target: T1, ATG4B (Homo sapiens, UniProt Q9Y4P1); test: ATG4B reporter yeast cell-based assay; details: ATG4 reporter yeast cells, FIG. 2
T1 sequence (Q9Y4P1 1-393): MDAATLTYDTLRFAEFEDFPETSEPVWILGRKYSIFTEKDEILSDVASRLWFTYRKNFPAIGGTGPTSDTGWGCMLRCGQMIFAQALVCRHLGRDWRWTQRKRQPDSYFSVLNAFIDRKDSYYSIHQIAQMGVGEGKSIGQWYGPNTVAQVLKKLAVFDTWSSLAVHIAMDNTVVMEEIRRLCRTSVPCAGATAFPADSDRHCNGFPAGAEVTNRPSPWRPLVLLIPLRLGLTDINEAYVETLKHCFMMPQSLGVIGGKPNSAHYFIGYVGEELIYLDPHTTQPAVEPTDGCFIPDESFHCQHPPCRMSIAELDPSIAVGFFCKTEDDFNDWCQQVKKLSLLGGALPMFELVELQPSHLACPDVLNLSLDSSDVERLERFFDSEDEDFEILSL
Experimental: (§1) Quantitative results are shown in each panel (n=4). […] Bar: 100 μm.
FIGS. 55-58 show the characterization of yeast based ATG4B reporter assay for hts. (FIG. 55) Two-fold serial titrated yeast that harbored the LC3 reporter with wild type ATG4B (WT) or catalytic mutant (C74A) expression vector and reporter vector were seeded into a 384-well plate for 24 or 48 h. The substrate of […] X-gal (80 μg/ml) was included in the SD medium for the colorimetric assay. (FIG. 56) Beta-Glo was added into each well as (A) at 24 or 48 h to optimize the yeast concentration for the luminescent substrate. (FIG. 57) Yeast that harbored the wild type (WT) ATG4B and catalytic mutant (C74A) were used to determine the ratio of signal (WT)/background (C74A) and compare the sensitivity between the colorimetric and luminescent substrates. (FIG. 58) […] of yeast reporter cells (1.5×10^4 cells/ml) as previously described were seeded into a 384-well white plate for 24 h. Ten μl of the luminescent substrate Beta-Glo was added to each well, and the luminescent signal was read to determine the ATG4B activity. The luminescent signal between the wild type (WT) ATG4B and catalytic mutant (C/A) was used to determine the assay robustness (Z′ factor: 0.78).

ATG4B [4] = target: T1, ATG4B; details: ATG4B 1 nM, 500 nM GABARAPL2-PLA2, 1 h, anti-Myc
Experimental: (§2) The fluorescence intensity was kinetically monitored for 1 h to determine the ATG4 activity at room temperature with excitation and emission wavelengths of 485 and 530 nm, respectively.
(§3) For cleavage of GABARAPL2-PLA2 and caspase-3 activation, reaction mixtures or cell lysates were immunoblotted with antibodies against Myc (Roche, 11667149001), caspase-3 (Cell Signaling, 9661), PARP (Cell Signaling, 9532) and GAPDH (Cell Signaling, 5174).
(§4) (FIG. 5) ATG4B (1 nM) or (FIG. 6) ATG4A (50 nM) was mixed with 10-fold serially diluted Tc and 500 nM GABARAPL2-PLA2 for 1 h. The cleavage of GABARAPL2-PLA2 was validated with immunoblotting using an anti-Myc antibody.

ATG4A [5] = target: T2, ATG4A (Homo sapiens, UniProt Q8WYN0); details: ATG4A 50 nM, 500 nM GABARAPL2-PLA2, 1 h, anti-Myc
T2 sequence (Q8WYN0 whole entry): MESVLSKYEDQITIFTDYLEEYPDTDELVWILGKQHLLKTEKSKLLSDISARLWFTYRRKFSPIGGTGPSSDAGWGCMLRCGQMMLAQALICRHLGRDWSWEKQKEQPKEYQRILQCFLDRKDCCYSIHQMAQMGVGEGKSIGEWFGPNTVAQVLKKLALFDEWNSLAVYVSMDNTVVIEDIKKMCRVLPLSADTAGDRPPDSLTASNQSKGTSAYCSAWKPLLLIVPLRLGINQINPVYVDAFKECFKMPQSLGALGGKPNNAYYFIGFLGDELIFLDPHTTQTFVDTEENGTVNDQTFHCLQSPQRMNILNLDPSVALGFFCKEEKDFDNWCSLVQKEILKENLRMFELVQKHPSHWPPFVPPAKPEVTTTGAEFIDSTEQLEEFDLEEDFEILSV
Experimental: as §2, §3, §4

ATG4 = ATG4 (Homo sapiens, UniProt Q9Y4P1); details: HEK293T cells, FIG. 8
Experimental: For the ATG4 cleavable reporter assay in mammalian cells, the N-terminus (NLuc, residues 2-416) and C-terminus (CLuc, residues 398-550) of the luciferase gene were constructed in the expression vector pcDNA3.0. […] The luciferase activity was measured via One-Glo (Promega) according to the instruction manual. The non-cleavable mutant G120A was used to normalize the luminescent signal and determine the ATG4 activity.
Quantitative results are shown in each panel (n=4). […] (FIG. 7) The expression vector that encoded ATG4-cleavable luciferase was constructed with LC3 and a luciferase chimera gene, as shown in the schematic diagram (upper panel). HEK293T cells were transfected with scramble siRNA (siCtrl) or siRNA against ATG4B (siATG4B) for 48 h, followed by transfection with the ATG4 reporter vector for 24 h. The luciferase activity was measured with a luminescent reader (n=6), and the knockdown efficiency of ATG4B was determined using immunoblotting. […] The cleavage of LC3 and luciferase chimera protein by ATG4 in cells treated with Tc or untreated cells was verified via immunoblotting (upper panel).
Briefly, LC3 was constructed to split N-terminal and C-terminal luciferase in a mammalian expression vector, as indicated (FIG. 7).

ATG4B and LC3 complex = ATG4B and LC3 complex (Homo sapiens, UniProt Q9Y4P1); details: HEK293T cells, flow cytometry
Experimental: The plasmids (1 μg/well) were transfected with lipofectamine 2000 transfection reagent (Life Technologies, 11668-027) into HEK293T cells in a 6-well plate for 24 h. The cells were imaged via fluorescence microscopy or harvested to quantify the fluorescence intensity via a flow cytometer (Becton Dickinson).
After overnight culture, the cells were fixed to observe Venus complementary under fluorescence microscopy (right panel). […] (FIG. 10) The transfected cells were treated with Tc for 8 h and fixed for flow cytometry to quantify Venus fluorescence using GFP as a counter assay.
The cells were fixed to determine Venus complementation with flow cytometry and quantitated with FlowJo. HEK 293T cells transfected with or without GFP expression vector were used as the blank and counter controls, respectively.

[6] = test system: H4 cells that stably express GFP-LC3; details: tioconazole 8 h
Experimental: The treated cells were fixed to observe the GFP-LC3 puncta via fluorescence microscopy. For protein colocalization, the H4 stable cells previously described were transfected with 1 μg plasmids Cherry tagged ATG4B or Lamp1-RFP (Addgene, 1817) for 36 h using Lipofectamine 2000 (Invitrogen).
(FIG. 17) Human glioma H4 cells that stably express GFP-LC3 were transfected with 5 nM non-targeting siRNA (Ctrl) or siRNA against ATG4 family members (ATG4) for 48 h, and the knockdown efficiency of ATG4 was verified with real time PCR. (FIG. 18) The knockdowned cells were fixed for observation via fluorescence microscopy, and the number of GFP-LC3 puncta is quantified in the right panel. […] The autophagy inhibitor CQ was used as a positive control. […] Representative autophagic vacuoles (AVs) are shown. […] (FIG. 22) The numbers of AVs for each optical section (9 m^2) are quantified (n=8). (FIG. 23) HCT116 cells expressing GFP-LC3 and RFP-Lamp1 were treated with Tc for 6 h and fixed to observe colocalization of GFP-LC3 and RFP-Lamp1 with confocal microscopy. […] The colocalization coefficients of images were quantified by the Ziess LSM 710 Software and are shown in the right panel. […] Cells were harvested for immunoblotting using antibodies against LC3, ATG4B or ACTB, and autophagy flux was quantified in untreated cells and cells treated with CQ based on changes in LC3-II. […]

HCT116 cells [7] = details: Tc 40 μM, versus untreated cells
Experimental: HCT116 cells treated with T2 (40 μM), CQ (20 μM) for 8 h were rinsed with PBS once and fixed in 2% glutaraldehyde at room temperature for 30 min. The cells were harvested to postfix with 1% osmium tetroxide and stained with 2% uranyl acetate (Agar Scientific) at room temperature for 1 h. The cell pellets were embedded to obtain 80 nm sections with a diamond knife. The sections were stained with 2% uranyl acetate and 0.3% lead citrate (Agar Scientific) and imaged with a JEM1400 PLUS transmission electron microscope (JEOL).
The autophagy inhibitor CQ was used as a positive control. Bar: 20 μm. […] Representative autophagic vacuoles (AVs) are shown. Arrowhead: autophagosome. Bar: 200 nm. (FIG. 22) The numbers of AVs for each optical section (9 m^2) are quantified (n=8).

[8] = test system: HCT116 and H4 cells expressing GFP-LC3 and RFP-Lamp1; details: Tc 6 h, confocal microscopy
Experimental: Human colorectal cancer HCT116 cells, glioblastoma H4 cells and breast cancer MDA-MB-231 from the ATCC were cultured in Dulbecco's modified Eagle's medium (DMEM) (Invitrogen, 12100-046) supplemented with 10% HyClone fetal bovine serum, penicillin (100 U/ml), and streptomycin (100 mg/ml). […] The treated cells were harvested to determine cell viability, apoptosis and immunoblotting.
The treated cells were fixed to observe the GFP-LC3 puncta via fluorescence microscopy.
(FIG. 23) HCT116 cells expressing GFP-LC3 and RFP-Lamp1 were treated with Tc for 6 h and fixed to observe colocalization of GFP-LC3 and RFP-Lamp1 with confocal microscopy. GFP-LC3 that had colocalized with or was surrounded by RFP-Lamp1 was identified as fusion between autophagosomes and lysosomes. The colocalization coefficients of images were quantified by the Ziess LSM 710 Software and are shown in the right panel. Bar: 20 m.

[9] = test system: H4, HCT116 or MDA-MB-231 cells
Experimental: The cells were briefly rinsed in PBS (Biological Industries, 02-023-1) and lysed with RIPA buffer (1% NP40 [MDBio, 101-9016-45-9], 50 mM Tris HCl, pH 7.5, 150 mM NaCl, 0.25% sodium deoxycholate [Sigma-Aldrich, D6750], 1% sodium dodecyl sulfate [SDS; Calbiochem, 428015], and protease inhibitor cocktail [Roche, 11873580001]). The cell lysates were used for immunoblotting with antibodies against the primary antibodies against ATG4B (A2981), LC3 (L7543), and ACTB (β-actin, A5441) (all purchased from Sigma-Aldrich). The differential accumulations of LC3 in cells with and without CQ were used to quantitate the autophagic flux (Mizushima et al., 2010). […] The proteins were probed with an HRP-labeled secondary antibody (Santa Cruz, sc-2004 or sc-2005) and detected with an ECL reagent. The membrane was scanned and analyzed for the protein expression level with the ChemiDoc XRS Imaging System (Bio-Rad).
The autophagy inhibitor CQ was used as a positive control. […] (FIG. 24) HCT16 cells were transfected with siRNA (5 nM) for 66 h and then treated with CQ (20 μM) for 2 h. Cells were harvested for immunoblotting using antibodies against LC3, ATG4B or ACTB, and autophagy flux was quantified in untreated cells and cells treated with CQ based on changes in LC3-II. […] (FIG. 26) The autophagic flux was quantified as described in FIG. 25.

HCT116 and H4 cells = details: Dox-treated cells, Tc 40 μM, JC-1
Experimental: For the MMP analysis, the cells were treated with JC-1 (5,5,6,6-tetrachloro-1,1,3,3-tetraethyl-benzimidazolylcarbocyanine iodide, Invitrogen) at 37° C. for 20 min prior to harvesting.

HCT116 spheroids = details: 48 h
Experimental: The cells (4000 cells/well) were seeded into an ultra-low attachment, 96-well plate (Costar®, USA) and grown overnight to form spheroid cells. […] The spheroid cells were stained with Calcein AM (1 μM) and Ethidium homodimer-1 (EthD-1, 2 μM) (LIVE/DEAD® Viability/Cytotoxicity Kit, ThermoFisher Scientific) for 30 minutes. The live (green) and dead (red) spheroid cells were imaged via fluorescence microscopy and quantitated using a Fluoroskan Ascent FL reader (Thermo Fisher Scientific) with excitation at 485 nm and emissions at 530 nm and 645 nm for calcein AM and EthD-1, respectively.
(FIG. 44) HCT116 cells were cultured in an ultra-low attachment dish for 24 h to form spheres. […] Scale bar: 400 μm. (FIG. 45) The relative sphere volume was quantified using DMSO-treated cells as the normalized control. (FIG. 46) HCT116 sphere-forming cells treated as (A) were lysed to measure ATP levels and assess cell viability. […] The viable and dead spheres were imaged with a LIVE/DEAD staining kit. The knockdown efficiency of ATG genes was verified by immunoblotting (left panel) (FIG. 48) The red fluorescence of the spheres in FIG. 47 was quantitated with a reader to assess the dead cell population (n=6).

ATG4B [10] = target: T1, ATG4B; test: biochemical
Experimental: as §2, §3, §4

ATG4A [11] = target: T2, ATG4A; test: biochemical
Experimental: as §2, §3, §4

HCT116 cells [12] = test: FACS cell cycle distribution, subG1 population; details: Dox 1 μM, 24 h
ATG4B [13] = target: T1, ATG4B; test: LC3-PLA2 biochemical ATG4 reporter assay; details: FIG. 2 and 4
Text: as §1

[14] = tioconazole-treated mice, immunohistochemistry

Experimental for HCT116 xenograft tumors: Human colorectal cancer HCT116 cells (2×10^6) were mixed with Matrigel (1:1) and subcutaneously implanted into six-week old immunodeficient mice (nu/nu, female). […] The tumor size in each mouse was measured every 3 to 4 days with vernier calipers, and the tumor volumes were calculated using the formula (larger diameter)×(smaller diameter)2×7π/6. Tumors were further cut from euthanized mice and embedded in paraffin. […] The protein levels in the tumor sections were determined using the UltraVision™ Quanto Detection System HRP DAB (Thermo Scientific) and observed under microscopy.
The tumor volume (circle) in each mouse was measured every 3 to 4 days (5 per group). The p values were determined with an ANOVA. […] The quantified results were obtained from at least 1500 cells and are shown in the right panel. p>0.05; *p<0.05; **p<0.01; ***p<0.001.

## z-VAD-fmk
[1]; zVAD-FMK 50 μM pretreatment, Tc 40 μM, Dox 1 μM 24 h
  apoptotic effects of tioconazole and Dox after pretreatment (cell viability): rescued the apoptotic effects
HCT116 cells [2]; zVAD-FMK 50 μM, cells treated with tioconazole and Dox
  caspase-3 activation after pretreatment: blocked caspase-3 activation

## COc1cccc2c1C(=O)c1c(O)c3c(c(O)c1C2=O)C[C@@](O)(C(=O)CO)C[C@@H]3O[C@H]1C[C@H](N)[C@H](O)[C@H](C)O1 [Dox, Doxorubicin]
HCT116 cells [2]
  caspase-3/7 activity and cleavage of caspase-3 and PARP: significantly elevated

## Clc1ccc(C(Cn2ccnc2)OCc2ccsc2Cl)c(Cl)c1 (stereo not shown) [tioconazole]
ATG4B [3]
  inhibition in the yeast cell-based assay: strong inhibition
[1]; cancer cell lines, tioconazole 40 μM combined with starvation or chemotherapeutic drugs
  cytotoxic effects of starvation and chemotherapy: enhanced the cytotoxic effects of starvation and chemotherapy
[1]; cancer cell lines, tioconazole 40 μM, cellular ATP levels or impedance
  cell viability: significantly reduced the cell viability
HCT116 cells [2]
  caspase-3/7 activity and cleavage of caspase-3 and PARP: significantly elevated
ATG4B [4]
  cleavage of GABARAPL2-PLA2 by ATG4B (immunoblotting): blocked the cleavage
ATG4A [5]
  cleavage of GABARAPL2-PLA2 by ATG4A (immunoblotting): blocked the cleavage
ATG4
  luciferase activity in ATG4 reporter cells: increased the luciferase activity
ATG4; immunoblotting
  cleavage of chimera luciferase in reporter cells: attenuated the cleavage of chimera luciferase
ATG4B and LC3 complex; Tc 8 h
  fluorescence from formation of the ATG4B and LC3 complex (BiFC): reduced the fluorescence
ATG4B and LC3 complex
  GFP fluorescence (counter assay): did not affect GFP fluorescence
[6]
  GFP-LC3-II puncta: accumulation of GFP-LC3-II puncta
HCT116 cells [7]
  number of autophagosomes (TEM): increased
[8]
  co-localization of LC3 and LAMP1: decreased the co-localization of LC3 and LAMP1
[9]; Tc 6 h, with or without CQ 20 μM
  autophagic flux (LC3-II accumulation with and without CQ): significantly attenuated autophagic flux
[9]; cancer cells, starvation or CPT/Dox 24 h, immunoblotting
  LC3-II turnover and SQSTM1 degradation triggered by starvation and chemotherapeutic drugs: blocked LC3-II turnover and SQSTM1 degradation
HCT116 and H4 cells
  mitochondrial membrane potential (MMP): reduction of mitochondrial membrane potential
HCT116 spheroids; HCT116 spheroids, Tc 40 μM
  size of tumor spheroids: significantly decreased the size of tumor spheroids
HCT116 spheroids; Tc 40 μM with Dox 1 μM
  cytotoxicity of Dox in spheroids (ATP levels, number of dead cells): enhanced the cytotoxicity of Dox
HCT116 spheroids; Tc 40 μM, Dox 1 μM, LIVE/DEAD staining
  Dox-induced cell death in spheres with scramble shRNA and shRNA against ATG4B: enhanced Dox-induced cell death
HCT116 xenograft tumors; Tc 60 mg/kg intraperitoneal every other day, day 21
  xenograft tumor weight: reduced the xenograft tumor weight
HCT116 xenograft tumors; Tc 60 mg/kg with Dox 1 mg/kg intraperitoneal every other day
  sensitivity of xenograft tumors to Dox: sensitized xenograft tumors to Dox
HCT116 xenograft tumors; [14]
  levels of cleaved caspase-3 in tumor tissues: significantly increased
  number of LC3 puncta in tumor tissues: significantly increased
ATG4B [10]
  IC50: 1.8 ± 0.16 µM
ATG4A [11]
  IC50: 1.3 ± 0.18 µM
HCT116 cells [12]
  cell death in combination with Dox (subG1 proportion): synergistically increased cell death

## Clc1ccc(COC(Cn2ccnc2)c2ccc(Cl)cc2Cl)c(Cl)c1 (stereo not shown) [miconazole]
ATG4B [13]
  inhibitory effect on ATG4B compared with tioconazole: failed to exhibit as good inhibitory effect on ATG4B as tioconazole
HCT116 cells [12]
  cell death in combination with Dox (subG1 proportion): less potently synergized with Dox
